In brackets after ≈: the same amount, converted by molar mass. Where two headings read alike, the source gives them in different places.

Data set [1] can be described thus: Stability in mouse lung homogenate. As to conditions: 37 °C; for half-life at 20 μM: mouse, mouse lung homogenate. Type of data set: in vitro ADME. On the procedure:
(§1) Solubility and stability studies were performed on a Gilson HPLC system with a photodiode array detector, an autosampler, and a Valco injector. Data acquisition and processing were performed with Trilution LC version 2.0 software. Measurements were carried out at 21 ± 1 °C. A 2.6-μm Kinetex column (50 × 4.6 mm) was used for stability studies in biological media, and a 5-μm Luna C18(2) column (50 × 4.6 mm) was used for solubility and chemical stability analysis. Both columns were purchased from Phenomenex. The injection volume was 20 μl, the mobile phase flow rate was 2 ml/min, and the following program was applied for the elution: 0–0.2 min, 0% B; 0.2–2.7 min, 0–100% B; 2.7–3.2 min, 100% B; 3.2–3.4 min, 100–0% B; 3.4–6.1 min, 0% B. Solvent B was HPLC grade acetonitrile (Sigma-Aldrich CHROMASOLV). The aqueous solvent contained 0.1% trifluoroacetic acid, and the detection wavelength was 365 nm.
Stability of chalcones was determined in mouse lung homogenate with or without HP-βCD 10% at 37 °C. Lung homogenate was prepared separately with a Fastprep® (Q-BIOgene, Illkirch, France) in PBS (one lung homogenized in 1 ml of buffer). For each compound, the incubation solutions, the sampling, and the extraction conditions were prepared as described under “Stability in Mouse Serum.”

Data set [2] deals with CXCL12 action on forskolin-evoked cAMP responses via CXCR4. The experiment in a line: cAMP determination with BRET sensor CAMYEL in HEK EGFP-hCXCR4 cells. Type of data set: cell-based. As to conditions: Homo sapiens; HEK293 EGFP-hCXCR4, 1 μM forskolin, 3 nM CXCL12; read-out: IC50, inhibition of CXCL12 effect on forskolin-evoked cAMP formation. On the procedure: CXCR4 receptor coupling to adenylyl cyclase was assessed by measuring the dose-dependent inhibitory effects of chemokine with or without chalcone on forskolin-stimulated cAMP accumulation. To facilitate studies of cAMP regulation, we used a developed bioluminescence resonance energy transfer (BRET) sensor for cAMP, CAMYEL (cAMP sensor using YFP-Epac-RLuc), which can quantitatively and rapidly monitor intracellular concentrations of cAMP in cells ([47]). HEK EGFP-hCXCR4 cells were cultured to ∼80% confluence in 75-cm^2 flasks in MEM with Earle's salt supplemented with 10% fetal calf serum, 2 mM glutamine, and 1% antibiotics (penicillin/streptomycin). Cells were plated on 10-cm plates and transfected with 10 μg of CAMYEL plasmid using the calcium phosphate precipitation method. Two days later, cells were plated in 96-well solid white tissue culture plates (Greiner) at a density of 60,000 cells/well the day before cAMP assay. […] The BRET assay was carried out with a Victor Light plate reader (PerkinElmer Life Sciences). Emission signals from Renilla luciferase and YFP were measured sequentially using a BRET1 filter set (475-30/535-30). […] After 5 min, 10 μl of a Hanks' balanced salt solution of coelenterazine-H (2 μM) were added, and plates were incubated for 10 min at 37 °C before reading.

Data set [3] in a line: Thermodynamic solubility (HPLC). As to conditions: for solubility: phosphate-buffered saline, PBS pH 7.4, 21 °C, 24 h shaking (CN-chalcone 4: 2 h, estimate), read-out: solubility in saline buffer; for maximal concentration dissolved with HP-βCD: physiological solution with 10% HP-βCD, 21 °C (CN-chalcone 4: 2 h, estimate). In kind it is physicochemical. On the procedure:
as §1
Thermodynamic solubility was measured by dissolving the compounds up to saturation in a pH 7.4 phosphate-buffered saline (PBS) with the following composition: 137.5 mM NaCl, 2.7 mM KCl, 4.3 mM Na2HPO4, and 1.4 mM KH2PO4 supplemented or not with 10% hydroxypropyl-β-cyclodextrin (HP-βCD). Samples were shaken for 24 h at 21 ± 1 °C. Saturation was confirmed by the presence of undissolved powder. After ultracentrifugation, the concentration in the supernatant was measured by an HPLC procedure using a calibration curve established for each compound by diluting a 10 mM DMSO stock solution to adapted concentrations. Due to rapid degradation of CN-chalcone 4, solubility was determined after 2 h of shaking. The indicated value given for CN-chalcone 4 is thus an estimate of the solubility.

Where [4] appears, read: with 10% HP-βCD, read-out: Stability half-life (t1/2), lung homogenate, 10% β-cyclodextrine (converted).

Usually IC50 stands for the concentration needed to halve the response being measured. By solubility is commonly meant the concentration that dissolves in the medium under given conditions. For `COc1cc(/C=C(\C#N)C(=O)c2ccc(Cl)cc2)ccc1O` [CN-chalcone 4, (E)-2-(4-chlorobenzoyl)-3-(4-hydroxy-3-methoxyphenyl)acrylonitrile], the half-life at 20 μM in data set [1] (10% HP-βCD, read-out: half-life in lung homogenate in the presence of HP-βCD) is 40 min; in data set [1] (setting [4]), 36 min; in data set [1] (read-out: Stability half-life (t1/2), lung homogenate (converted)) it was 24 min; in data set [1] (read-out: t½ in lung homogenate) it was 25 min. The IC50 in data set [2] is 6.9 ± 0.4 µM. For the same compound, the solubility in data set [3] was 16 ± 2 µM (≈ 5.02 µg/mL). The “maximal concentration dissolved with HP-βCD” value in data set [3] was 493 ± 36 µM.
Turning to `COc1cc(/C=C/C(=O)c2ccc(Cl)cc2)ccc1O` [chalcone 4], the “percentage of starting molecule recovered, lung homogenate, 10% β-cyclodextrine” value in data set [1] (at 16 h) is on record as 66%. For the same compound, the half-life at 20 μM in data set [1] (setting [4]) was more than 960 min. Further, in data set [2], the IC50 is 4.1 ± 0.3 µM. In addition, in data set [3], the solubility is 9 ± 1 µM (≈ 2.6 µg/mL) and the “maximal concentration dissolved with HP-βCD” value is 690 ± 44 µM.

The record behind these values is article PMC3636874, “An Antedrug of the CXCL12 Neutraligand Blocks Experimental Allergic Asthma without Systemic Effect in Mice” (The Journal of Biological Chemistry, 2013).
